Assay results: ChEMBL document CHEMBL1156987, “Novel azalides derived from 16-membered macrolides. III. Azalides modified at the C-15 and 4'' positions: Improved antibacterial activities” (Bioorg Med Chem, 2010)
Converted amounts (≈) assume the structure as drawn.

Columns and labels:
Format in all cases: functional
[1] = test system: Staphylococcus aureus; test: Antibacterial activity against Staphylococcus aureus 209P JC1 after 20 hrs by agar dilution method; settings: 209P JC1, 20 h
[2] = test system: Streptococcus pneumoniae; test: Antibacterial activity against Streptococcus pneumoniae DP1 type 1 after 20 hrs by agar dilution method; settings: DP1 type1, 20 h
[3] = test system: Streptococcus pneumoniae; test: Antibacterial activity against Streptococcus pneumoniae 5 expressing constitutive ermB methylase after 20 hrs by agar dilution method; settings: Streptococcus pneumoniae, 5, 20 h
[4] = test system: Streptococcus pneumoniae; test: Antibacterial activity against Streptococcus pneumoniae 6 expressing constitutive ermB methylase and mefA after 20 hrs by agar dilution method; settings: Streptococcus pneumoniae, 6, 20 h
[5] = test system: Streptococcus pneumoniae; test: Antibacterial activity against Streptococcus pneumoniae 7 expressing constitutive ermB methylase after 20 hrs by agar dilution method; settings: Streptococcus pneumoniae, 7, 20 h
[6] = test system: Streptococcus pneumoniae; test: Antibacterial activity against Streptococcus pneumoniae 8 expressing inducible ermB methylase after 20 hrs by agar dilution method; settings: Streptococcus pneumoniae, 8, 20 h
[7] = test system: Streptococcus pneumoniae; test: Antibacterial activity against Streptococcus pneumoniae 9 expressing inducible ermB methylase after 20 hrs by agar dilution method; settings: Streptococcus pneumoniae, 9, 20 h
[8] = test system: Streptococcus pneumoniae; test: Antibacterial activity against Streptococcus pneumoniae 10 expressing mefA efflux pump after 20 hrs by agar dilution method; settings: Streptococcus pneumoniae, 10, 20 h
[9] = test system: Streptococcus pneumoniae; test: Antibacterial activity against Streptococcus pneumoniae 11 expressing mefA efflux pump after 20 hrs by agar dilution method; settings: Streptococcus pneumoniae, 11, 20 h
[10] = test system: Streptococcus pyogenes; test: Antibacterial activity against Streptococcus pyogenes Cook after 20 hrs by agar dilution method
[11] = test system: Streptococcus pyogenes; test: Antibacterial activity against Streptococcus pyogenes 2 expressing constitutive ermB methylase after 20 hrs by agar dilution method; settings: Streptococcus pyogenes, 2, 20 h
[12] = test system: Streptococcus pyogenes; test: Antibacterial activity against Streptococcus pyogenes 3 expressing mefA efflux pump after 20 hrs by agar dilution method; settings: Streptococcus pyogenes, 3, 20 h
[13] = test system: Haemophilus influenzae; test: Antibacterial activity against Haemophilus influenzae 1 after 20 hrs by agar dilution method; settings: Haemophilus influenzae, 1, 20 h
[14] = test system: Haemophilus influenzae; test: Antibacterial activity against Haemophilus influenzae 2 after 20 hrs by agar dilution method; settings: Haemophilus influenzae, 2, 20 h
[15] = test system: Haemophilus influenzae; test: Antibacterial activity against Haemophilus influenzae 3 after 20 hrs by agar dilution method; settings: Haemophilus influenzae, 3, 20 h

Row | Compound | MIC [1] | MIC [2] | MIC [3] | MIC [4] | MIC [5] | MIC [6] | MIC [7] | MIC [8] | MIC [9] | MIC [10] | MIC [11] | MIC [12] | MIC [13] | MIC [14] | MIC [15]
1 | CCCNC(=O)O[C@H]1[C@H](C)O[C@@H](O[C@H]2[C@H](N(C)C)[C@@H](O)[C@H](O[C@H]3[C@@H](CC=O)C[C@@H](C)[C@@H](O)CN(C)CCC[C@H](C/C=C/c4cnc5ccccc5c4)OC(=O)C[C@@H](OC(=O)CC)[C@@H]3OC)O[C@@H]2C)C[C@@]1(C)OC(=O)CC | 0.5 µg/mL (≈ 0.467 µM) | 0.03 µg/mL (≈ 0.028 µM) | 16 µg/mL (≈ 14.9 µM) | 32 µg/mL (≈ 29.9 µM) | 16 µg/mL (≈ 14.9 µM) | 0.25 µg/mL (≈ 0.233 µM) | 0.25 µg/mL (≈ 0.233 µM) | 0.06 µg/mL (≈ 0.056 µM) | 0.06 µg/mL (≈ 0.056 µM) | 0.13 µg/mL (≈ 0.121 µM) | 64 µg/mL (≈ 59.7 µM) | 0.25 µg/mL (≈ 0.233 µM) | 8 µg/mL (≈ 7.47 µM) | 32 µg/mL (≈ 29.9 µM) | 32 µg/mL (≈ 29.9 µM)
2 | CCC(=O)O[C@@H]1CC(=O)O[C@@H](C/C=C/c2cnc3ccccc3c2)CCCN(C)C[C@H](O)[C@H](C)C[C@H](CC=O)[C@H](O[C@@H]2O[C@H](C)[C@@H](O[C@H]3C[C@@](C)(OC(=O)CC)[C@@H](OC(=O)NCCO)[C@H](C)O3)[C@H](N(C)C)[C@H]2O)[C@H]1OC | 0.5 µg/mL (≈ 0.466 µM) | 0.015 µg/mL (≈ 0.014 µM) | > 32 µg/mL | 32 µg/mL (≈ 29.8 µM) | 32 µg/mL (≈ 29.8 µM) | 0.25 µg/mL (≈ 0.233 µM) | 0.5 µg/mL (≈ 0.466 µM) | 0.015 µg/mL (≈ 0.014 µM) | 0.015 µg/mL (≈ 0.014 µM) | 0.06 µg/mL (≈ 0.0559 µM) | > 32 µg/mL | 0.13 µg/mL (≈ 0.121 µM) | 4 µg/mL (≈ 3.73 µM) | 16 µg/mL (≈ 14.9 µM) | 16 µg/mL (≈ 14.9 µM)
3 | CCNC(=O)O[C@H]1[C@H](C)O[C@@H](O[C@H]2[C@H](N(C)C)[C@@H](O)[C@H](O[C@H]3[C@@H](CC=O)C[C@@H](C)[C@@H](O)CN(C)CCC[C@H](C/C=C/c4cncc5ccccc45)OC(=O)C[C@@H](OC(=O)CC)[C@@H]3OC)O[C@@H]2C)C[C@@]1(C)OC(=O)CC | 0.5 µg/mL (≈ 0.473 µM) | 0.015 µg/mL (≈ 0.0142 µM) | 8 µg/mL (≈ 7.57 µM) | 8 µg/mL (≈ 7.57 µM) | 8 µg/mL (≈ 7.57 µM) | 0.13 µg/mL (≈ 0.123 µM) | 0.25 µg/mL (≈ 0.236 µM) | 0.03 µg/mL (≈ 0.0284 µM) | 0.03 µg/mL (≈ 0.0284 µM) | 0.06 µg/mL (≈ 0.0567 µM) | 128 µg/mL (≈ 121 µM) | 0.25 µg/mL (≈ 0.236 µM) | 8 µg/mL (≈ 7.57 µM) | 16 µg/mL (≈ 15.1 µM) | 16 µg/mL (≈ 15.1 µM)
4 | CCC(=O)O[C@@H]1CC(=O)O[C@@H](C/C=C/c2ccc3ccccc3c2)CCCN(C)C[C@H](O)[C@H](C)C[C@H](CC=O)[C@H](O[C@@H]2O[C@H](C)[C@@H](O[C@H]3C[C@@](C)(O)[C@@H](OC(=O)CC)[C@H](C)O3)[C@H](N(C)C)[C@H]2O)[C@H]1OC | 0.5 µg/mL (≈ 0.507 µM) | 0.06 µg/mL (≈ 0.0609 µM) | 32 µg/mL (≈ 32.5 µM) | 32 µg/mL (≈ 32.5 µM) | 32 µg/mL (≈ 32.5 µM) | 8 µg/mL (≈ 8.12 µM) | 8 µg/mL (≈ 8.12 µM) | 0.13 µg/mL (≈ 0.132 µM) | 0.13 µg/mL (≈ 0.132 µM) | 0.25 µg/mL (≈ 0.254 µM) | 32 µg/mL (≈ 32.5 µM) | 1 µg/mL (≈ 1.01 µM) | 8 µg/mL (≈ 8.12 µM) | 16 µg/mL (≈ 16.2 µM) | 16 µg/mL (≈ 16.2 µM)
5 | CCNC(=O)O[C@H]1[C@H](C)O[C@@H](O[C@H]2[C@H](N(C)C)[C@@H](O)[C@H](O[C@H]3[C@@H](CC=O)C[C@@H](C)[C@@H](O)CN(C)CCC[C@H](C/C=C/c4cnc5ccccc5c4)OC(=O)C[C@@H](O)[C@@H]3OC)O[C@@H]2C)C[C@@]1(C)OC(=O)CC | 0.25 µg/mL (≈ 0.25 µM) | < 0.008 µg/mL | 4 µg/mL (≈ 4 µM) | 4 µg/mL (≈ 4 µM) | 4 µg/mL (≈ 4 µM) | 0.06 µg/mL (≈ 0.0599 µM) | 0.06 µg/mL (≈ 0.0599 µM) | 0.015 µg/mL (≈ 0.015 µM) | 0.015 µg/mL (≈ 0.015 µM) | 0.06 µg/mL (≈ 0.0599 µM) | 8 µg/mL (≈ 7.99 µM) | 0.06 µg/mL (≈ 0.0599 µM) | 2 µg/mL (≈ 2 µM) | 4 µg/mL (≈ 4 µM) | 4 µg/mL (≈ 4 µM)

More lines, in order of falling MIC [1], values ahead:

Row | MIC [1] | MIC [2] | MIC [3] | MIC [4] | MIC [5] | MIC [6] | MIC [7] | MIC [8] | MIC [9] | MIC [10] | MIC [11] | MIC [12] | MIC [13] | MIC [14] | MIC [15] | Compound
6 | 1 µg/mL (≈ 0.978 µM) | 0.03 µg/mL (≈ 0.0293 µM) | 8 µg/mL (≈ 7.83 µM) | 8 µg/mL (≈ 7.83 µM) | 8 µg/mL (≈ 7.83 µM) | 0.25 µg/mL (≈ 0.245 µM) | 0.5 µg/mL (≈ 0.489 µM) | 0.06 µg/mL (≈ 0.0587 µM) | 0.06 µg/mL (≈ 0.0587 µM) | 0.13 µg/mL (≈ 0.127 µM) | > 32 µg/mL | 0.5 µg/mL (≈ 0.489 µM) | 4 µg/mL (≈ 3.91 µM) | 16 µg/mL (≈ 15.7 µM) | 32 µg/mL (≈ 31.3 µM) | CCNC(=O)O[C@H]1[C@H](C)O[C@@H](O[C@H]2[C@H](N(C)C)[C@@H](O)[C@H](O[C@H]3[C@@H](CC=O)C[C@@H](C)[C@@H](O)CN(C)CCC[C@H](C/C=C/c4ccc(N)nc4)OC(=O)C[C@@H](OC(=O)CC)[C@@H]3OC)O[C@@H]2C)C[C@@]1(C)OC(=O)CC
7 | 0.5 µg/mL (≈ 0.467 µM) | 0.03 µg/mL (≈ 0.028 µM) | 16 µg/mL (≈ 14.9 µM) | 16 µg/mL (≈ 14.9 µM) | 16 µg/mL (≈ 14.9 µM) | 0.25 µg/mL (≈ 0.233 µM) | 0.25 µg/mL (≈ 0.233 µM) | 0.06 µg/mL (≈ 0.056 µM) | 0.13 µg/mL (≈ 0.121 µM) | 0.13 µg/mL (≈ 0.121 µM) | 32 µg/mL (≈ 29.9 µM) | 0.25 µg/mL (≈ 0.233 µM) | 8 µg/mL (≈ 7.47 µM) | 32 µg/mL (≈ 29.9 µM) | 32 µg/mL (≈ 29.9 µM) | CCC(=O)O[C@@H]1CC(=O)O[C@@H](C/C=C/c2cnc3ccccc3c2)CCCN(C)C[C@H](O)[C@H](C)C[C@H](CC=O)[C@H](O[C@@H]2O[C@H](C)[C@@H](O[C@H]3C[C@@](C)(OC(=O)CC)[C@@H](OC(=O)NC(C)C)[C@H](C)O3)[C@H](N(C)C)[C@H]2O)[C@H]1OC
8 | 0.5 µg/mL (≈ 0.473 µM) | 0.015 µg/mL (≈ 0.0142 µM) | 64 µg/mL (≈ 60.5 µM) | 64 µg/mL (≈ 60.5 µM) | 64 µg/mL (≈ 60.5 µM) | 0.5 µg/mL (≈ 0.473 µM) | 0.5 µg/mL (≈ 0.473 µM) | 0.03 µg/mL (≈ 0.0284 µM) | 0.03 µg/mL (≈ 0.0284 µM) | 0.06 µg/mL (≈ 0.0567 µM) | > 128 µg/mL | 0.25 µg/mL (≈ 0.236 µM) | 8 µg/mL (≈ 7.57 µM) | 32 µg/mL (≈ 30.3 µM) | 16 µg/mL (≈ 15.1 µM) | CCNC(=O)O[C@H]1[C@H](C)O[C@@H](O[C@H]2[C@H](N(C)C)[C@@H](O)[C@H](O[C@H]3[C@@H](CC=O)C[C@@H](C)[C@@H](O)CN(C)CCC[C@H](C/C=C/c4ccnc5ccccc45)OC(=O)C[C@@H](OC(=O)CC)[C@@H]3OC)O[C@@H]2C)C[C@@]1(C)OC(=O)CC
9 | 0.5 µg/mL (≈ 0.496 µM) | 0.015 µg/mL (≈ 0.0149 µM) | 32 µg/mL (≈ 31.8 µM) | 32 µg/mL (≈ 31.8 µM) | 32 µg/mL (≈ 31.8 µM) | 0.5 µg/mL (≈ 0.496 µM) | 0.5 µg/mL (≈ 0.496 µM) | 0.06 µg/mL (≈ 0.0596 µM) | 0.06 µg/mL (≈ 0.0596 µM) | 0.13 µg/mL (≈ 0.129 µM) | > 64 µg/mL | 0.5 µg/mL (≈ 0.496 µM) | 4 µg/mL (≈ 3.97 µM) | 16 µg/mL (≈ 15.9 µM) | 32 µg/mL (≈ 31.8 µM) | CCNC(=O)O[C@H]1[C@H](C)O[C@@H](O[C@H]2[C@H](N(C)C)[C@@H](O)[C@H](O[C@H]3[C@@H](CC=O)C[C@@H](C)[C@@H](O)CN(C)CCC[C@H](C/C=C/c4cccnc4)OC(=O)C[C@@H](OC(=O)CC)[C@@H]3OC)O[C@@H]2C)C[C@@]1(C)OC(=O)CC
10 | 0.25 µg/mL (≈ 0.236 µM) | 0.03 µg/mL (≈ 0.0284 µM) | 32 µg/mL (≈ 30.3 µM) | > 32 µg/mL | > 32 µg/mL | 0.25 µg/mL (≈ 0.236 µM) | 0.5 µg/mL (≈ 0.473 µM) | 0.06 µg/mL (≈ 0.0567 µM) | 0.06 µg/mL (≈ 0.0567 µM) | 0.06 µg/mL (≈ 0.0567 µM) | > 32 µg/mL | 0.06 µg/mL (≈ 0.0567 µM) | 8 µg/mL (≈ 7.57 µM) | 32 µg/mL (≈ 30.3 µM) | 32 µg/mL (≈ 30.3 µM) | CCC(=O)O[C@@H]1CC(=O)O[C@@H](C/C=C/c2cnc3ccccc3c2)CCCN(C)C[C@H](O)[C@H](C)C[C@H](CC=O)[C@H](O[C@@H]2O[C@H](C)[C@@H](O[C@H]3C[C@@](C)(OC(=O)CC)[C@@H](OC(=O)N(C)C)[C@H](C)O3)[C@H](N(C)C)[C@H]2O)[C@H]1OC
